The conditions of this data set: 293 K; 101.33 kPa; Crystal; X-ray diffraction.

Numbers after ± are expanded uncertainties.

Our source for the mass density values is the NIST ThermoML archive (doi:10.1016/j.jct.2017.05.041).

Usually mass density stands for the mass of a sample divided by its volume.

As for `NCC1(CC(=O)O)CCCCC1.O` [2-(1-(aminomethyl)cyclohexyl)acetic acid monohydrate], the mass density was 1210 ± 12 kg/m3.

In the case of `NCC1(CC(=O)O)CCCCC1` [2-(1-(aminomethyl)cyclohexyl)acetic acid], the mass density worked out at 1239 ± 10 kg/m3.
